Data set [1] has as its target T1, human type I GnRH receptor (Homo sapiens, UniProt P30968).
T1 construct: purchased Merck Millipore
T1 sequence (P30968 1-328): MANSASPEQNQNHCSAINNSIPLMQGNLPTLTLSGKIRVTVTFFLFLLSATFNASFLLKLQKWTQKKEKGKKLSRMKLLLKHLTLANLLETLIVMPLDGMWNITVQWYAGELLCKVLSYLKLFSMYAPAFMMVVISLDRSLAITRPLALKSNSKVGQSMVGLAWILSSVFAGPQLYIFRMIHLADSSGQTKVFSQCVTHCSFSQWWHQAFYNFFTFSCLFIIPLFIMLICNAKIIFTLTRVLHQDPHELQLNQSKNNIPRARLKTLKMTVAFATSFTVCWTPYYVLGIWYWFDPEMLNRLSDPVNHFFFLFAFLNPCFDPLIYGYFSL
Put plainly: Radioligand binding, cell membranes expressing human type I GnRH receptor, [125I]Triptorelin. The following applies: Ki ± SD, n=3; competition with [125I]Triptorelin; read-out: Receptor affinity Ki for the human GnRH receptor. The method, then: Radioligand binding studies were performed with 0.18-0.32 nM [^125I]LHRH-[D-Trp^6]
Further, binding curves for of compounds SB-001-RS, SB-002-RS, SB-003-RS, and SB-004-RS for the human GnRH receptor in competition for [^125I]Triptorelin were measured (n=3) (FIG. 3).

Data set [2] can be described thus: Stability in rat serum at 37° C., radio-HPLC. Type of data set: in vitro ADME. The following applies: for % Intact 18F-compound, Serum 1 h / % Intact 18F-compound, Serum 2 h: 37° C. The method, then:
(§1) During the development of embodiments of the technology provided herein, a competitive binding assay was used to measure the binding affinity to rat GnRH receptor of the two nonradioactive reference ^19F-compounds described above. Radiolabeling was performed from [^18F]fluoride using the corresponding mesylate and chloro-precursors using K[^18F]/K222 complex in DMSO. Log P values and serum stability were investigated and their brain uptake was studied by small animal PET imaging in healthy rats.
(§2) Serum and in vivo stability measurements were performed as follows. Approximately 5 MBq of ^18F compounds (e.g., peptides or small molecules) in PBS (50 μL) was added to freshly collected rat serum (0.4 mL) and samples were incubated at 37° C. in Eppendorf tubes. After 1 hour and 2 hours, ice-cold ethanol (400 μL) was added and the mixtures were centrifuged at 13,400 rpm for 10 minutes. The resulting supernatants were diluted with Solvent A and analyzed by radio-HPLC.
(§3) Also, the stabilities of the compounds were measured in rat serum and in vivo in rat blood and urine (Table 2). Table 2 provides the fraction (as a percentage of the initial amount) of compound remaining in serum, blood, or urine as a function of time (e.g., after 1 and 2 hours).

Data set [3] deals with T2, rat GnRH receptor (Rattus norvegicus, UniProt P30969).
T2 construct: expressed in transfected cells; host or cells: HEK 293 cells (transient transfection, membranes prepared 48 h later)
T2 sequence (P30969 1-327): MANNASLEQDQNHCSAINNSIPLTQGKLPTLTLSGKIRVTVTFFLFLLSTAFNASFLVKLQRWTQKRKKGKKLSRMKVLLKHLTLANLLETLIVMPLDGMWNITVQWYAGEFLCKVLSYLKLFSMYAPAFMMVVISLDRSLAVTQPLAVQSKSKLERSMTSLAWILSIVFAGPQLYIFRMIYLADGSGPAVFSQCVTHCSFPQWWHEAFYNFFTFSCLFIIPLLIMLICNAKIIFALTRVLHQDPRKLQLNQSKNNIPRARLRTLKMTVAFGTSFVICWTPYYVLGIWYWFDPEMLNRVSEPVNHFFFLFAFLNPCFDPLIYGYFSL
Put plainly: Radioligand binding, membranes of HEK 293 cells expressing rat GnRH receptor, [125I] LH-RH Dtrp6. The method, then:
(§4) PSA was calculated using ChemBioDraw Ultra 12.0; Clog D was experimentally determined; Ki was determined by an in vitro assay in HEK 293 cells expressing rat GnRH receptor (see below); the radiochemical yield with respect to isotope decay was corrected based on the start of synthesis, and radiochemical purity was analyzed by Radio-HPLC.
For the membrane preparation and radioligand binding assays, HEK 293 cells were grown in Dulbecco's modified Eagle's medium with 10% fetal bovine serum, penicillin (100 U/ml), and streptomycin (100 μg/ml), and transiently transfected with rat GnRH receptor using LipofectAMINE 2000 (Invitrogen) according to the manufacturer's protocol. 48 hours later, membranes were prepared and radioligand binding was performed as previously described (see, e.g., Krobert et al (2001) “The cloned human 5-HT7 receptor splice variants: a comparative characterization of their pharmacology, function and distribution” Naunyn Schmiedebergs Arch Pharmacol 363(6): 620-32). Radioligand binding studies were performed with 0.18-0.32 nM [^125I] […]
In Table 1, PSA was calculated using ChemBioDraw Ultra 12.0; Clog D was experimentally determined; Ki was determined by an in vitro assay in HEK 293 cells expressing rat GnRH receptor; the radiochemical yield with respect to isotope decay was corrected to the start of synthesis, and radiochemical purity was analyzed by Radio HPLC. […]

Data set [4] in a line: Log D / Log P of pilot compounds, experimentally determined. It is filed as physicochemical. Conditions: for logP: n-octanol / phosphate-buffered saline, pilot 18F compounds. The method, then:
as §4
In Table 1, PSA was calculated using ChemBioDraw Ultra 12.0; Clog D was experimentally determined; Ki was determined by an in vitro assay in HEK 293 cells expressing rat GnRH receptor; the radiochemical yield with respect to isotope decay was corrected to the start of synthesis, and radiochemical purity was analyzed by Radio HPLC.
as §1

Data set [5] in a line: Brain uptake by small animal PET imaging in healthy rats. The following applies: for Brain uptake (in words): healthy rats. Type of data set: in vivo, rat.
Excerpt: In particular, PET images (e.g., 90-minute summed PET images) of the brain of a Sprague-Dawley rat injected with an [^18F] compound according to an embodiment of the technology show accumulation of the compound in the central regions of the brain.
as §1

Data set [6] can be described thus: In vivo stability in rat blood and urine. The following applies: for % Intact 18F-compound, Blood 1 h: rat blood; for % Intact 18F-compound, Urine 1 h: rat urine. The method, then: as §2, §3
A short description of data set [7]: Octanol/water partition coefficient, PBS (pH 7.4)/n-octanol. Type of data set: physicochemical. Conditions: phosphate-buffered saline (pH 7.4)/n-octanol, n=3. The method, then:
Octanol/water partition coefficients were determined as follows. Approximately 10 kBq of ^18F-compounds in 50 μL PBS were diluted in 450 μL of PBS (pH 7.4) and added to 500 μL of n-octanol in an Eppendorf tube (n=3). After vortexing for 3 minutes, the tubes were centrifuged (10,300 rpm for 6 minutes) and 100 μL aliquots of the PBS and n-octanol phases were carefully transferred to separate tubes. The radioactivity of the samples was counted in a γ-counter.
Log P values were measured in a phosphate-buffered saline (pH 7.4)/n-octanol system.

Entries after “also recorded” stand apart in the source; their conditions may differ.

Usually Ki stands for a dissociation constant, usually derived from enzyme kinetics or from competition with a known ligand. For the compound `COc1cc(NCCCF)cc(OC)c1NC(=O)c1ccc(Cc2cc3c(cc2C)CCCC3(C)C)o1` [SB-001-RS, N-(4-((3-fluoropropyl)amino)-2,6-dimethoxyphenyl)-5-((3,8,8-trimethyl-5,6,7,8-tetrahydronaphthalen-2-yl)methyl)furan-2-carboxamide], the inhibitory constant (Ki) in data set [1] was determined as 3.7 ± 2.3 nM.
Still for that read-out and setting: the figure for `COc1cc(NCCCF)cc(OC)c1NC(=O)c1ccc(Oc2cc3c(cc2C)CCC3(C)C)o1` [SB-002-RS, N-(4-((3-fluoropropyl)amino)-2,6-dimethoxyphenyl)-5-((3,3,6-trimethyl-2,3-dihydro-1H-inden-5-yl)oxy)furan-2-carboxamide] is 1.5 ± 3.9 nM; for `COc1cc(OCCF)cc(OC)c1NC(=O)c1ccc(Cc2cc3c(cc2C)CCCC3(C)C)o1` [SB-003-RS, N-(4-(2-fluoroethoxy)-2,6-dimethoxyphenyl)-5-((3,8,8-trimethyl-5,6,7,8-tetrahydronaphthalen-2-yl)methyl)furan-2-carboxamide] it is 0.6 ± 0.4 nM.
As to `COc1cc(OCCF)cc(OC)c1NC(=O)c1ccc(Oc2cc3c(cc2C)CCC3(C)C)o1` [SB-004-RS, N-(4-(2-fluoroethoxy)-2,6-dimethoxyphenyl)-5-((3,3,6-trimethyl-2,3-dihydro-1H-inden-5-yl)oxy)furan-2-carboxamide], in data set [1], the Ki turned out to be 2.1 ± 2.1 nM.
By logP is commonly meant a log measure of how a compound divides between an organic and an aqueous phase. A low value points to a more hydrophilic compound. On to `COc1nc(OCC[18F])nc(OC)c1NC(=O)c1ccc(Oc2cc3c(cc2C)CCC3(C)C)o1` [[^18F]SB7-65-18], for which, in data set [2] (rat serum, over 2 hours), the “Stability in rat serum” value is given as “stable”. The compound further showed a Ki in data set [3] of 1.36 nM. The same compound had a logP in data set [4] (pH 7.4) of 1.3. The logD in data set [4] (pH 7.4, experimentally determined, read-out: CLog D (pH 7.4)) is 1.22. In addition, the “Brain uptake (in words)” value in data set [5] was “failed to show significant brain uptake”.
As to `COc1nc([18F])nc(OC)c1NC(=O)c1ccc(Oc2cc3c(cc2C)CCC3(C)C)o1` [[^18F]SB7-65-19], the half-life at 11.1 MBq/mL in data set [2] (rat, serum, hydrolysis of the amide bond, read-out: Serum stability t1/2) was below 30 min. Also, the Ki in data set [3] was 42 nM. Also, the “CLog D (pH 7.4)” value in data set [4] (experimentally determined) was 1.33. In addition, the log partition coefficient (logP) in data set [4] (pH 7.4) stood at 1.4. For the same compound, the “Brain uptake (in words)” value in data set [5] was “entered the brain and was clearly visibly by PET; also recorded: significant brain uptake”. Besides, the “Brain (CNS) uptake” value in data set [5] (rat, at 10 minutes) is 0.4 % ID/g.
On to `COc1cc(NCCCF)cc(OC)c1NC(=O)c1ccc(Cc2cc3c(cc2C)CCCC3(C)C)o1` [[^18F]SB-001-RS, N-(4-((3-fluoropropyl)amino)-2,6-dimethoxyphenyl)-5-((3,8,8-trimethyl-5,6,7,8-tetrahydronaphthalen-2-yl)methyl)furan-2-carboxamide], for which, in data set [6], the “% Intact 18F-compound, Blood 1 h” value is 81% and the “% Intact 18F-compound, Urine 1 h” value is listed as 94.5%. Further, in data set [2] (rat serum), the “% Intact 18F-compound, Serum 1 h” value is above 95% and the “% Intact 18F-compound, Serum 2 h” value was found to be 88.5%. The logP in data set [7] is 1.43.
For `COc1cc(NCCCF)cc(OC)c1NC(=O)c1ccc(Oc2cc3c(cc2C)CCC3(C)C)o1` [[^18F]SB-002-RS, N-(4-((3-fluoropropyl)amino)-2,6-dimethoxyphenyl)-5-((3,3,6-trimethyl-2,3-dihydro-1H-inden-5-yl)oxy)furan-2-carboxamide] the same measures were 97%, 99%, 99.1%, 97.5% and 1.49.
For `COc1cc(OCCF)cc(OC)c1NC(=O)c1ccc(Cc2cc3c(cc2C)CCCC3(C)C)o1` [[^18F]SB-003-RS, N-(4-(2-fluoroethoxy)-2,6-dimethoxyphenyl)-5-((3,8,8-trimethyl-5,6,7,8-tetrahydronaphthalen-2-yl)methyl)furan-2-carboxamide] the same measures were 88.1%, 18.5%, above 95%, 91.1% and 1.68.
As for `COc1cc(OCCF)cc(OC)c1NC(=O)c1ccc(Oc2cc3c(cc2C)CCC3(C)C)o1` [[^18F]SB-004-RS, N-(4-(2-fluoroethoxy)-2,6-dimethoxyphenyl)-5-((3,3,6-trimethyl-2,3-dihydro-1H-inden-5-yl)oxy)furan-2-carboxamide], in data set [6], the “% Intact 18F-compound, Blood 1 h” value is on record as 97.5% and the “% Intact 18F-compound, Urine 1 h” value was determined as 99%. Further, in data set [2] (rat serum), the “% Intact 18F-compound, Serum 1 h” value is above 95% and the “% Intact 18F-compound, Serum 2 h” value is 97.3%. In data set [7], this compound showed a logP of 1.82.

Source of the values: US20160058895A1, “RADIOLABELED GNRH ANTAGONISTS AS PET IMAGING AGENTS” (OSLO UNIVERSITETSSYKEHUS HF, priority 2013, published 2016).
